Laboratory results reported in patent publication US7303762B2, “Absorption enhancers” (Axcess Limited, priority 2000, dated 2007).

Columns and labels:
[1] = Plasma glucose after intra-jejunal administration of insulin capsules to conscious pigs; format: in vivo; conditions: one capsule
Experimental: Formulations prepared as described in examples 1 and 2 were administered (one capsule per animal) directly to the intestine of conscious pigs (40 to 60 kg) via an in-dwelling stoma implanted surgically in the jejunum. Before and after administration, at the intervals shown, blood samples were taken for analysis of blood glucose levels. As a control, capsules containing 200 iu of unformulated insulin were also administered intra-jejunally.

Caco-2 cells = assay: Trans-epithelial electrical resistance (TEER) across Caco-2 mono-layer; format: cell-based, human; conditions: four replicates
Experimental: Caco-2 cells (a cell-line derived from human colon adenocarcinoma) were grown as a confluent mono-layer on the surface of a porous membrane (pore size 0.4 μm, surface area 0.33 cm^2) separating two aqueous compartments, the upper compartment filled with 200 μl of culture medium, and the lower compartment containing 600 μl. Electrical resistance across the mono-layer was measured using an epithelial voltohmeter connected to electrodes inserted into the medium on either side of the mono-layer in the upper and lower compartments. This trans-epithelial electrical resistance (TEER) was measured immediately before, and 15 minutes after the addition of aromatic alcohols to the upper compartment (see Table 6 below). Use of the compounds diluted two to four-fold below those concentrations shown eliminates the falls in electrical resistance observed. Fall in TEER is considered indicative of the appearance of aqueous channels between cells, and is evidence that the mechanism of action of the aromatic alcohols tested, in exerting their absorption enhancing activity, is via opening or loosening of tight junctions between intestinal cells.

Control (unformulated insulin): capsules containing 200 iu of unformulated insulin administered intra-jejunally
Changes in plasma glucose ([1]; 15 minutes, + s.d.): 0.01 + 0.24 mmol/l | Changes in plasma glucose ([1]; 30 minutes, + s.d.): −0.05 + 0.21 mmol/l | Changes in plasma glucose ([1]; 45 minutes, + s.d.): −0.06 + 0.17 mmol/l | Changes in plasma glucose ([1]; 60 minutes, + s.d.): −0.32 + 0.23 mmol/l | Changes in plasma glucose ([1]; 90 minutes, + s.d.): −0.17 + 0.21 mmol/l | Changes in plasma glucose ([1]; 120 minutes, + s.d.): −0.22 + 0.32 mmol/l | Changes in plasma glucose ([1]; 180 minutes, + s.d.): −0.13 + 0.21 mmol/l | Changes in plasma glucose ([1]; 240 minutes, + s.d.): −0.34 + 0.32 mmol/l | Changes in plasma glucose ([1]; time −10 minutes): 0.00 mmol/L

OCc1ccccc1 [Benzyl alcohol]
TEER 15 minutes after (Caco-2 cells; 15 minutes after addition to upper compartment, concentration 40 μl/ml): −1.6 ± 3.2 ohm · cm^2 | TEER Before addition (Caco-2 cells; immediately before addition of agent): 447.2 ± 76.9 ohm · cm^2
